Data taken from patent publication US20220315616A1, “MANGANESE CHELATE ISOMERS” (GE Healthcare AS, priority 2019, published 2022).

How the values were obtained:
[1] = Dissociation of manganese from the chelate in human serum (SEC with ICP-MS); format: in vitro ADME; settings: for Percent dechelation in human serum: 37° C., protein bound manganese
Description: (§1) Stability of Mn Chelate-5 stereoisomers in human serum was assessed in vitro by monitoring transfer of Mn from the chelate to blood proteins by a method employing size exclusion chromatography combined with online detection of manganese containing species by ICP-MS.
The following method was used for measurement of dissociation of manganese from the manganese chelate in human serum.
To human serum obtained from clotted blood (Sigma-Aldrich, 1900 μL) was added an aqueous solution of the manganese chelate (2 mM, 100 μL). The mixture was incubated at 37° C. At specific time points aliquots of 200 μL of test sample were mixed with saline (400 μL) and analysed by size exclusion chromatography (metal-free HPLC equipped with a column with separation range 5000-500000 Dalton) combined with online detection of manganese containing species by ICP-SF-MS. Percent dechelation was measured as area percent of the high molecular weight (protein) fraction. At regular intervals EDTA solution was run through the system to ensure low levels of background metal ions. Human serum was incubated with Mn(II)acetate and injected to identify the position of Mn-binding components in the high molecular weight region of the chromatogram.
Four different stereoisomers of Mn Chelate-5 (RR, SS, SR and RS) were analysed in this assay.

[2] = r1 and r2 relaxivities (Brüker mq60 relaxometer); format: physicochemical; settings: in human serum at 60 MHz and 37° C.
Source text: General method for measurement of r1 and r2 relaxivities. […] […] Linear fits (R^2>0.99 in all cases) of 1/T1 or 1/T2 as a function of Mn concentration gave r1 or r2 values respectively.

[3] = Trans-metalation with Zn (HPLC, % Mn chelate remaining); format: physicochemical; settings: 2 mM chelate, 200 mM ZnCl2 in 15 mM ammonium formate, pH=4, 40° C.
Description: as §1
Method for assessing trans-metalation with Zn. Mn chelates were dissolved in aqueous solutions containing 200 mM ZnCl2 and 15 mM ammonium formate at either pH=4 to give a Mn chelate concentration of approx. 2 mM. The resulting solutions were incubated at 40° C. with mixing and aliquots were periodically analyzed by HPLC. The percent Mn containing chelate remaining in the solution was measured by integration at 265 nm.

[4] = Mn-54 biodistribution study in rats; format: in vivo, Sprague-Dawley rats; settings: rat, 7 d post injection; for % ID ± standard deviation, Brain: 0.62 mmol Mn/kg with ~30 μCi 54Mn labeled chelate, n = 4
Description: In vivo stability of the different isomer pools was assessed via a ^54Mn radioactive biodistribution as Mn released in vivo is known to be retained in brain, bone and liver. The amount of Mn released in vivo was assessed for Mn Chelate-5 synthesized without stereochemical control, a 1:1 mix of (R,R)-Mn Chelate-5 and (S,S)-Mn Chelate 5 isomers, and (R,S)-Mn Chelate-5 isomer pool B using ^54Mn labeled material added to non-radiolabeled material. […] Rats were dosed with 0.62 mmol Mn Chelate-5/kg containing ˜30 μCi ^54Mn Chelate-5. The animals were sacrificed at 7 d post injection, organs of interest were collected, and the ^54Mn remaining in the organs was measured using a gamma counter. FIG. 4 is a plot showing % ID (injected dose)/organ 7 d post injection of a 0.62 mmol Mn Chelate-5/kg dose containing ˜[…] ^54Mn Chelate-5. Bars containing hashed lines represent % ID/organ at or below the limit of detection for the study. The results of statistical comparison of the % ID for each organ are summarized as p-values using either a one-way ANOVA Games-Howell comparison or a 2-way t-test as appropriate are shown for each organ.
Method for preparation of Mn-54 labeled chelate for biodistribution studies. To a 3 mL glass vial fitted with a magnetic stir bar was added the manganese containing chelate (1 mg) and 1.0 M ammonium formate, pH=4 (0.5 mL). ^54MnCl2 in 1.0 M HCl (˜500 μCi) was then added and the resulting solution was heated at 40° C. for 16 h. The resulting solution was purified via preparative HPLC to remove unchelated Mn. The radioactive fraction was collected and evaporated to dryness in vacuo. The radioactive residue was taken up in water containing non-radioactive Mn chelate (0.310 M) such that ˜30 μCi of radioactivity was formulated in a dose of 0.620 mmol Mn/kg with an injection volume of 2 mL/kg.
General method for Mn-54 biodistribution studies. […] 7 days post injection, the animals were sacrificed by CO2 immersion and organs and tissues of interest were removed and assayed for radioactivity using a Wizard 2480 gamma counter (Table 2).

| Structure (SMILES) | Percent dechelation in human serum ([1]; incubation time 3 h) [%] | Percent dechelation in human serum ([1]; incubation time 24 h) [%] | Percent dechelation in human serum ([1]; incubation time 49 h) [%] | r1 relaxivity [2] [mM⁻¹ s⁻¹] | Rate of transmetallation with Zn (among Mn Chelate-5 stereoisomers) [3] | Mn remaining in vivo in brain and bone vs 1:1 (S,S)/(R,R) mixture or Mn Chelate-5 without stereochemical control [4] | % ID ± standard deviation, Brain [4] [% ID] | Stability in human serum (percent dechelation curves, comparison of isomers) ([1]; 2 days total incubation at 37 °C) |
| --- | --- | --- | --- | --- | --- | --- | --- | --- |
| CN1CCN2Cc3cccc(n3)CN(CC1)[C@H](CCC(=O)NC[C@H](O)[C@@H](O)[C@H](O)[C@H](O)CO)C(=O)[O][Mn][O]C(=O)[C@H]2CCC(=O)NC[C@H](O)[C@@H](O)[C@H](O)[C@H](O)CO [(R,R)-Mn Chelate-5] | 0.6 | 2.7 | 3.6 |  |  |  |  |  |
| CN1CCN2Cc3cccc(n3)CN(CC1)[C@@H](CCC(=O)NC[C@H](O)[C@@H](O)[C@H](O)[C@H](O)CO)C(=O)[O][Mn][O]C(=O)[C@H]2CCC(=O)NC[C@H](O)[C@@H](O)[C@H](O)[C@H](O)CO [(R,S)-Mn Chelate-5] | 0.04 | 0.11 | 0.16 | 6.0 | significantly slower rate of transmetallation | significantly less Mn remaining in vivo | 0.002 ± 0.0004 | most stable |
| CN1CCN2Cc3cccc(n3)CN(CC1)[C@@H](CCC(=O)NC[C@H](O)[C@@H](O)[C@H](O)[C@H](O)CO)C(=O)[O][Mn][O]C(=O)[C@@H]2CCC(=O)NC[C@H](O)[C@@H](O)[C@H](O)[C@H](O)CO [(S,S)-Mn Chelate-5] | 0.3 | 1.6 | 2.4 |  |  |  |  |  |
| CN1CCN2Cc3cccc(n3)CN(CC1)C(CCC(=O)NC[C@H](O)[C@@H](O)[C@H](O)[C@H](O)CO)C(=O)[O][Mn][O]C(=O)C2CCC(=O)NC[C@H](O)[C@@H](O)[C@H](O)[C@H](O)CO (stereo partly shown) [Mn Chelate-5] |  |  |  | 6.0 |  |  | 0.005 ± 0.0004 |  |
